Experimental data from patent publication US20170190671A1, “BIS(ARYL)CATECHOL DERIVATIVES AS HERBICIDES” (E I DU PONT DE NEMOURS AND COMPANY, priority 2014, published 2017).

Assays:
Experiment in all cases: Test E postemergence
Assay type in all cases: in vivo
Conditions in all cases: scale 0 to 100
kochia (Kochia scoparia) = tested on: kochia (Kochia scoparia)
Excerpt: (§1) Seeds of plant species selected from corn (Zea mays), soybean (Glycine max), velvetleaf (Abutilon theophrasti), cocklebur (common cocklebur, Xanthium strumarium), lambsquarters (Chenopodium album), wild poinsettia (Euphorbia heterophylla), palmer pigweed (Amaranthus palmeri), waterhemp (common waterhemp, Amaranthus rudis), surinam grass (Brachiaria decumbens), large (Lg) crabgrass (Digitaria sanguinalis), Brazilian crabgrass (Digitaria horizontalis), fall panicum (Panicum dichotomiflorum), giant foxtail (Setaria faberii), green foxtail (Setaria viridis), goosegrass (Eleusine indica), johnsongrass (Sorghum halepense), ragweed (common ragweed, Ambrosia elatior), barnyardgrass (Echinochloa crus-galli), sandbur (southern sandbur, Cenchrus echinatus), arrowleaf sida (Sida rhombifolia), Italian ryegrass (Lolium multiflorum), dayflower (Virginia (VA) dayflower, Commelina virginica), field bindweed (Convolvulus arvensis), morningglory (Ipomoea coccinea), nightshade (eastern black nightshade, Solanum ptycanthum), kochia (Kochia scoparia), yellow nutsedge (Cyperus esculentus), horseweed (Conyza canadensis), and hairy beggarticks (Bidens pilosa), were planted into a silt loam soil and treated preemergence with test chemicals formulated in a non-phytotoxic solvent mixture which included a surfactant.
(§2) At the same time, plants from these crop and weed species and also waterhemp_RES1, (ALS & Triazine resistant common waterhemp, Amaranthus rudis), and waterhemp_RES2, (ALS & HPPD resistant common waterhemp, Amaranthus rudis) were planted in pots containing Redi-Earth® planting medium (Scotts Company, 14111 Scottslawn Road, Marysville, Ohio 43041) comprising spaghnum peat moss, vermiculite, wetting agent and starter nutrients were treated with postemergence applications of test chemicals formulated in the same manner. Plants ranged in height from 2 to 18 cm for postemergence treatments (1- to 4-leaf stage). Treated plants and controls were maintained in a greenhouse for 14 to 21 days, after which time all species were compared to controls and visually evaluated. Plant response ratings, summarized in Table E, are based on a scale of 0 to 100 where 0 is no effect and 100 is complete control. A dash (-) response means no test result.

soybean (Glycine max) = tested on: soybean (Glycine max)
Excerpt: as §1, §2

[1] = tested on: sandbur (southern sandbur, Cenchrus echinatus)
Excerpt: as §1, §2

[2] = tested on: waterhemp_RES2 (ALS & HPPD resistant common waterhemp, Amaranthus rudis)
Excerpt: as §1, §2

[3] = tested on: horseweed (Conyza canadensis)
Excerpt: as §1, §2

[4] = tested on: Italian ryegrass (Lolium multiflorum)
Excerpt: as §1, §2

corn (Zea mays) = tested on: corn (Zea mays)
Excerpt: as §1, §2

[5] = tested on: palmer pigweed (Amaranthus palmeri)
Excerpt: as §1, §2

[6] = tested on: waterhemp (common waterhemp, Amaranthus rudis)
Excerpt: as §1, §2

[7] = tested on: barnyardgrass (Echinochloa crus-galli)
Excerpt: as §1, §2

[8] = tested on: arrowleaf sida (Sida rhombifolia)
Excerpt: as §1, §2

[9] = tested on: waterhemp_RES1 (ALS & Triazine resistant common waterhemp, Amaranthus rudis)
Excerpt: as §1, §2

[10] = tested on: ragweed (common ragweed, Ambrosia elatior)
Excerpt: as §1, §2

[11] = tested on: Brazilian crabgrass (Digitaria horizontalis)
Excerpt: as §1, §2

[12] = tested on: hairy beggarticks (Bidens pilosa)
Excerpt: as §1, §2

[13] = tested on: fall panicum (Panicum dichotomiflorum)
Excerpt: as §1, §2

[14] = tested on: dayflower (Virginia (VA) dayflower, Commelina virginica)
Excerpt: as §1, §2

[15] = tested on: field bindweed (Convolvulus arvensis)
Excerpt: as §1, §2

N#Cc1cccc(Oc2ncc(Cl)cn2)c1Oc1ncc(C(F)(F)F)cn1 [Compound 38, 3-[(5-chloro-2-pyrimidinyl)oxy]-2-[[5-(trifluoromethyl)-2-pyrimidinyl]oxy]-benzonitrile]
Plant response rating, Kochia (kochia (Kochia scoparia); 16 g ai/ha): 80
Plant response rating, Kochia (kochia (Kochia scoparia); 31 g ai/ha): 80
Plant response rating, Kochia (kochia (Kochia scoparia); 62 g ai/ha): 100
Plant response rating, Kochia (kochia (Kochia scoparia); 125 g ai/ha): 98
Plant response rating, Soybean (soybean (Glycine max); 16 g ai/ha): 70
Plant response rating, Soybean (soybean (Glycine max); 31 g ai/ha): 80
Plant response rating, Soybean (soybean (Glycine max); 62 g ai/ha): 95
Plant response rating, Soybean (soybean (Glycine max); 125 g ai/ha): 98
Plant response rating, Sandbur ([1]; 16 g ai/ha): 0
Plant response rating, Sandbur ([1]; 31 g ai/ha): 0
Plant response rating, Sandbur ([1]; 62 g ai/ha): 10
Plant response rating, Sandbur ([1]; 125 g ai/ha): 20
Plant response rating, Waterhemp_RES2 ([2]; 16 g ai/ha): 75
Plant response rating, Waterhemp_RES2 ([2]; 31 g ai/ha): 85
Plant response rating, Waterhemp_RES2 ([2]; 62 g ai/ha): 90
Plant response rating, Waterhemp_RES2 ([2]; 125 g ai/ha): 95
Plant response rating, Horseweed ([3]; 16 g ai/ha): 5
Plant response rating, Horseweed ([3]; 31 g ai/ha): 10
Plant response rating, Horseweed ([3]; 62 g ai/ha): 20
Plant response rating, Horseweed ([3]; 125 g ai/ha): 40
Plant response rating, Ryegrass, Italian ([4]; 16 g ai/ha): 0
Plant response rating, Ryegrass, Italian ([4]; 31 g ai/ha): 5
Plant response rating, Ryegrass, Italian ([4]; 62 g ai/ha): 10
Plant response rating, Ryegrass, Italian ([4]; 125 g ai/ha): 15
Plant response rating, Corn (corn (Zea mays); 16 g ai/ha): 0
Plant response rating, Corn (corn (Zea mays); 31 g ai/ha): 0
Plant response rating, Corn (corn (Zea mays); 62 g ai/ha): 15
Plant response rating, Corn (corn (Zea mays); 125 g ai/ha): 20
Plant response rating, Pigweed, Palmer ([5]; 16 g ai/ha): 60
Plant response rating, Pigweed, Palmer ([5]; 31 g ai/ha): 75
Plant response rating, Pigweed, Palmer ([5]; 62 g ai/ha): 60
Plant response rating, Pigweed, Palmer ([5]; 125 g ai/ha): 90
Plant response rating, Waterhemp ([6]; 16 g ai/ha): 85
Plant response rating, Waterhemp ([6]; 31 g ai/ha): 90
Plant response rating, Waterhemp ([6]; 62 g ai/ha): 95
Plant response rating, Waterhemp ([6]; 125 g ai/ha): 95
Plant response rating, Barnyardgrass ([7]; 16 g ai/ha): 0
Plant response rating, Barnyardgrass ([7]; 31 g ai/ha): 10
Plant response rating, Barnyardgrass ([7]; 62 g ai/ha): 10
Plant response rating, Barnyardgrass ([7]; 125 g ai/ha): 20
Plant response rating, Arrowleaf Sida ([8]; 16 g ai/ha): 60
Plant response rating, Arrowleaf Sida ([8]; 31 g ai/ha): 80
Plant response rating, Arrowleaf Sida ([8]; 62 g ai/ha): 90
Plant response rating, Arrowleaf Sida ([8]; 125 g ai/ha): 90
Plant response rating, Waterhemp_RES1 ([9]; 16 g ai/ha): 80
Plant response rating, Waterhemp_RES1 ([9]; 31 g ai/ha): 90
Plant response rating, Waterhemp_RES1 ([9]; 62 g ai/ha): 90
Plant response rating, Waterhemp_RES1 ([9]; 125 g ai/ha): 95
Plant response rating, Ragweed ([10]; 16 g ai/ha): 20
Plant response rating, Ragweed ([10]; 31 g ai/ha): 20
Plant response rating, Ragweed ([10]; 62 g ai/ha): 40
Plant response rating, Ragweed ([10]; 125 g ai/ha): 50
Plant response rating, Crabgrass, Brazil ([11]; 16 g ai/ha): 10
Plant response rating, Crabgrass, Brazil ([11]; 31 g ai/ha): 15
Plant response rating, Crabgrass, Brazil ([11]; 62 g ai/ha): 20
Plant response rating, Crabgrass, Brazil ([11]; 125 g ai/ha): 20
Plant response rating, Beggarticks ([12]; 16 g ai/ha): 35
Plant response rating, Beggarticks ([12]; 31 g ai/ha): 40
Plant response rating, Beggarticks ([12]; 62 g ai/ha): 40
Plant response rating, Beggarticks ([12]; 125 g ai/ha): 50
Plant response rating, Panicum, Fall ([13]; 16 g ai/ha): 10
Plant response rating, Panicum, Fall ([13]; 31 g ai/ha): 10
Plant response rating, Panicum, Fall ([13]; 62 g ai/ha): 10
Plant response rating, Dayflower, VA ([14]; 16 g ai/ha): 40
Plant response rating, Dayflower, VA ([14]; 31 g ai/ha): 50
Plant response rating, Dayflower, VA ([14]; 62 g ai/ha): 60
Plant response rating, Dayflower, VA ([14]; 125 g ai/ha): 60
Plant response rating, Field Bindweed ([15]; 16 g ai/ha): 60
Plant response rating, Field Bindweed ([15]; 31 g ai/ha): 65
Plant response rating, Field Bindweed ([15]; 62 g ai/ha): 80
Plant response rating, Field Bindweed ([15]; 125 g ai/ha): 85
